# Where two headings read alike, the source gives them in different places.
# Key:
# [1] = system: T. b. brucei Lister strain 427 bloodstream form (BSF); assay: In vitro activity assay for T. brucei (resazurin growth inhibition); format: cell-based; conditions: Trypanosoma brucei
# [2] = system: T. cruzi Dm28c epimastigotes; assay: T. cruzi epimastigotes assay (resazurin); format: cell-based; conditions: Trypanosoma cruzi
# Method: The exponential growth phase of epimastigotes were treated with different concentrations of drugs or 0.1% DMSO as negative control and incubated for 3 days at 28 °C. The viability of parasites was quantified with resazurin as described in the T. brucei assay.
# [3] = Host cell toxicity in the T. cruzi amastigote assay; format: cell-based; conditions: human
# Method: U2OS human osteosarcoma cells were maintained in DMEM supplemented with high glucose, 10% FBS, and 1% P/S at 37 °C with 5% CO2 in air. […] Cell images were acquired by an automated image analyzer (Operetta, Perkin Elmer Technology, Waltham, MA, USA); analysis included at least 1000 cells in five fields per well. For the imaging of infected cells and parasites, Draq-5 was observed under a 20× air objective. An image analysis algorithm (Columbus, Perkin Elmer Technology) was used to detect the Draq-5 signal in the nuclei of cells and parasites as described in a previous article and shown in Supplementary Figure S1 [20]. The number of parasites was defined by the value of the number of parasites in infected cells of the acquired image.
# L. donovani amastigotes = assay: L. donovani (VL) in vivo mouse model, liver LDU; set-up: species or system BALB/c mice; conditions: for parasite burden in liver (LDU): 5 days of treatment; for reduction of parasite burden: versus vehicle-treated group
# Method: BALB/c mice (n = 5) were injected with 2 × 10^7 hamster spleen-derived L. donovani amastigotes via the retro-orbital venous sinus route. From day 7 post-infection, groups of mice were treated using the drug vehicle only, miltefosine (30 mg/kg), or SQ109 (30, 50, 100 mg/kg). On day 16 post-infection, all animals were humanely euthanized and assessed microscopically using Giemsa-stained liver imprints. […] The LDU values for the drug-treated samples were compared to those of the untreated samples.
# T. cruzi trypomastigotes = system: T. cruzi trypomastigotes; set-up: method as in PMID 25583723; conditions: cited from earlier work
smiles,measurement,setting,value
"CC(C)=CCC/C(C)=C/CNCCNC1C2CC3CC(C2)CC1C3 (stereo not drawn) [SQ109, N-adamantan-2-yl-N’-((E)-3,7-dimethyl-octa-2,6-dienyl)-ethane-1,2-diamine]",EC50,"[1]; bloodstream forms, read-out: T. brucei BSF EC50 (converted)",810 nM
same,IC50,"[1]; 3 days (72 h) of compound incubation, Figure 2A, read-out: IC50, T. brucei trypomastigote viability",320 nM
same,IC50,"[2]; 72 h, Figure 2C, read-out: IC50, T. cruzi epimastigote growth inhibition (resazurin reduction)",12600 nM
same,EC50,"[2]; epimastigotes, read-out: T. cruzi Dm28c EC50 (EPI)",4500 nM
same,CC50 at 3 days,"[3]; 3 days of compound incubation, Figure 2D, read-out: half-maximal cytotoxic concentration (CC50) against the host U2OS",2950 nM
same,CC50 at 3 days,"[3]; amastigote host cells, read-out: T. cruzi Dm28c CC50 (U2OS)",3600 nM
same,parasite burden in liver (LDU),L. donovani amastigotes; 30 mg/kg,1060 ± 110 LDU
same,parasite burden in liver (LDU),L. donovani amastigotes; 50 mg/kg,772 ± 89 LDU
same,reduction of parasite burden,L. donovani amastigotes; 50 mg/kg,31.8%
same,parasite burden in liver (LDU),L. donovani amastigotes; 100 mg/kg,737 ± 145 LDU
same,reduction of parasite burden,L. donovani amastigotes; 100 mg/kg,34.9%
same,IC50,T. cruzi trypomastigotes,50 nM

# — paper PMC8944987, “In Vivo Efficacy of SQ109 against Leishmania donovani, Trypanosoma spp. and Toxoplasma gondii and In Vitro Activity of SQ109 Metabolites” (Biomedicines, 2022)
